This is an account of results in US8071575B2, “Methods and compounds for the targeted delivery of agents to bone for interaction therewith” (priority 2007, dated 2011).

The nature of data set [1]: Body weight of OVX rats during treatment. The class given is in vivo, Sprague-Dawley female rats. The conditions noted are these: oral 3000 μg/kg, three times per week for 6 weeks. The procedure:
(§1) Animals. Six month old, bilaterally ovariectomized (OVX) or sham operated Sprague-Dawley female rats (Harlan Laboratories, Indianapolis, Ind.) were maintained at the University of Louisville Research Resources Center at 22° C. with a 12-h light/dark cycle and ad libitum access to tap water and rodent chow (Purina Laboratory Rodent Diet 5001). All animal procedures were approved by the Institutional Animal Care and Use Committee, which is certified by the American Association for Accreditation of Laboratory Animal Care.
In vivo experiments were conducted in order to investigate the efficacy of compounds of the presently-disclosed subject matter. In all of the experiments, OVX and sham operated rats were randomly divided into groups of 5-7 animals. In all of the studies experimental groups included: i) Sham-operated control (euthanized six weeks post surgery as a pretreatment control), ii) OVX control (euthanized six weeks post surgery as a pretreatment control), iii) Sham control receiving vehicle, iv) OVX control receiving vehicle, v) OVX receiving 17-ethinyl estradiol (equimolar concentration with a selected test compound), vi) OVX receiving alendronate (1.6 mg/kg), and vii) OVX receiving parathyroid hormone 1-34 (PTH) ([…]). 17-ethinyl estradiol (17 EE) is a free estrogenic agent known to be orally active, and can serve as an example of an anti-catabolic agent. […]

Data set [2] relates to OVX rats. Description: Uterine mass and uterine mass to body weight ratio in OVX rats. The class given is in vivo, Sprague-Dawley female rats. The conditions noted are these: OVX rats, oral 3000 μg/kg; compared to animals treated with 17-ethinyl estradiol. On the procedure:
as §1
In vivo experiments were conducted in order to investigate the efficacy of compounds of the presently-disclosed subject matter. In all of the experiments, OVX and sham operated rats were randomly divided into groups of 5-7 animals. In all of the studies experimental groups included: i) Sham-operated control (euthanized six weeks post surgery as a pretreatment control), ii) OVX control (euthanized six weeks post surgery as a pretreatment control), iii) Sham control receiving vehicle, iv) OVX control receiving vehicle, v) OVX receiving 17-ethinyl estradiol (equimolar concentration with a selected test compound), vi) OVX receiving alendronate (1.6 mg/kg), and vii) OVX receiving parathyroid hormone 1-34 (PTH) ([…]). 17-ethinyl estradiol (17 EE) is a free estrogenic agent known to be orally active, and can serve as an example of an anti-catabolic agent. Alendronate (Alen) is a bisphosphonate that is currently used to treat osteoporosis (e.g., Fosamax®, Merck & Co., Inc,), and can serve as an example of an anti-catabolic agent. Parathyroid hormone 1-34 (PTH) is an agent that can serve as an example of an anabolic agent. All compounds and vehicle (1% DMSO in corn oil) were administered three times per week orally by gavage except for PTH which was administered via a subcutaneous injection in a volume of 0.5 ml/kg body mass thrice per week. Compound administration was initiated 6 weeks following surgery and lasted for 6 weeks (18 doses total).
Compounds of the presently-disclosed subject matter were orally administered to OVX rats at various doses. As indicated above all BTE's were administered three times per week for 6 weeks.
Following 6 weeks of treatment, blood was obtained from each animal via cardiac puncture following an overnight fast and animals were subsequently euthanized via carbon dioxide asphyxiation. Blood was centrifuged immediately and the obtained serum samples were aliquoted and stored at −70° C. prior to analysis. Uteri were removed and fresh weights were obtained. Uterine masses were normalized to body mass at the end of the experiment. The left and right femora and left and right tibiae were subsequently collected from each animal, cleaned of soft tissue, and stored in saline at 4° C. prior to analysis.
Uterine Mass and Body Weight. […] Uterine mass can be used to as a measure of estrogenic effect occurring in a tissue outside the bone in response to treatment with a test compound or composition. Generally, a lower uterine mass can be associated with a decreased risk of adverse side effects associated with the test compound or composition. A ratio of uterine mass to body weight can be used to correct for any increase in uterine size attributable to the relative size of the individual animal. Body weight and/or uterine mass also serve as an indirect measures of toxicity of a test compound.

A short description of data set [3]: Hydroxyapatite (HA) Binding Assay. Particulars: 10^−5 M analyte, 50 mM Tris-HCl pH 7.4, 1% DMSO; adjusted such that tetracycline = 100. On the procedure:
A Hydroxyapatite (HA) Binding Assay is used to determine whether compounds have an affinity for bone. Compounds of the presently-disclosed subject matter having a Bone Targeting Portion (RT) are studied using the HA Binding Assay. A 10^−3 M solution of each analyte was made in 100% dimethylsulfoxide (DMSO). A 100 fold dilution was then made to form a 10^−5 M solution in 50 mM Tris-HCl buffer, pH 7.4, 1% DMSO. Tetracycline was used as a reference analyte and approximately 50% was adsorbed to HA at the concentration of 10^−5 M. The HA slurry was 0.5 g/100 mL 50 mM Tris-HCl buffer, 1% DMSO.
For each analyte, two samples were prepared. For one sample, 1 mL of 10^−5 M analyte and 100 μL 50 mM Tris-HCl buffer, 1% DMSO was pipetted into a microcentrifuge tube. For the second sample, 1 mL of 10^−5 M analyte and 100 μL of the HA slurry was pipetted into a microcentrifuge tube. The samples were mixed gently by inversion for 4 minutes and then centrifuged at 12,000 g for 3 minutes to sediment the HA contained in those samples. The supernatant was transferred to another microcentrifuge tube.
An electronic spectral scan (ultraviolet-visible) from 220-520 nm was obtained for each analyte using a Varian Cary 300 Bio Scan. The blank was 50 mM Tris-HCl buffer, 1% DMSO. The wavelength of maximum absorbance (λmax) was determined, and the extinction coefficient (ε) was calculated using the Beer-Lambert Law.
The absorbance of the samples incubated with HA was measured at λmax, and the molar concentration of the analyte was then determined using the Beer-Lambert Law and the previously calculated extinction coefficient. The fraction adsorbed to HA for each sample was subsequently calculated.

Data set [4] deals with OVX rats. The data set can be described thus: Rat Osteocalcin EIA (serum). The class given is in vivo, Sprague-Dawley female rats. Particulars: 100 or 1000 μg/kg doses. The procedure: as §1
In vivo experiments were conducted in order to investigate the efficacy of compounds of the presently-disclosed subject matter. In all of the experiments, OVX and sham operated rats were randomly divided into groups of 5-7 animals. […]
Rat Osteocalcin EIA. […] Rat serum osteocalcin levels were measured using the Rat Osteocalcin EIA Kit from Biomedical Technologies, Incorporated (Stoughton, Mass.) as recommended by the manufacturer.

SMILES strings stand for the structures.

Regarding `COc1ccc(NC(=O)CCC(=O)OC2CCC3C4CCC5=CC(=O)CCC5(C)C4CCC23C)c(O)c1C(N)=O` (stereo not drawn) [Formula 33], the body weight entry in data set [1] is “lower body weights as compared to the OVX animals”. In the data set with OVX rats [2], the “ratio of uterine mass to body weight” value is given as “lower” and the uterine mass entry was “lower”. Further, in data set [3], the “Binding Index (binding to hydroxyapatite)” value is on record as 140.
`COc1ccc(NC(=O)COCCOCCNC(=O)CCOC2CCC3C4CCc5cc(O)ccc5C4CCC23C)c(O)c1C(N)=O` (stereo not drawn) [Formula 123]: the “Binding Index (binding to hydroxyapatite)” value in data set [3] was determined as 160. In addition, in the data set on OVX rats [4], the serum osteocalcin levels entry is recorded as “stimulates osteocalcin”.
